Experimental data reported in PMC12721288, “Functional expression and properties of the tick α6 homomeric nicotinic acetylcholine receptor in Xenopus laevis oocytes” (Current Research in Parasitology & Vector-borne Diseases, 2025).
Like-named read-outs stand apart in the source and are kept apart here.

Columns and labels:
Assay type in all cases: cell-based, Ixodes ricinus
[1] = test system: T1, Iricα6 homomeric nicotinic acetylcholine receptor; test: two-electrode voltage clamp in Xenopus oocytes, agonist dose-response
T1 construct: Iricα6 homomeric receptor expressed in Xenopus laevis oocytes (co-injected with C. elegans RIC-3)

[2] = test system: T1, Iricα6 homomeric nicotinic acetylcholine receptor; test: two-electrode voltage clamp in Xenopus oocytes, inhibition of ACh-evoked currents
[3] = test system: T1, Iricα6 homomeric nicotinic acetylcholine receptor; test: two-electrode voltage clamp in Xenopus oocytes, agonist-like dose-response

With `CC(=O)OCC[N+](C)(C)C` [ACh, acetylcholine] the EC50 [1] was 27700 ± 2440 nM.
Compound `CO[C@H]1CC=C2CCN3CCC4=C(CC(=O)OC4)[C@]23C1` [DHβE, dihydro-β-erythroidine] has an IC50 [2] of 1.35 nM.
Work on `CNC1(C)C2CCC(C2)C1(C)C` (stereo not shown) [MECA, mecamylamine] yielded an EC50 [3] of 12.6 nM.
`CCN1C[C@]2(COC(=O)c3ccccc3N3C(=O)C[C@H](C)C3=O)CC[C@H](OC)[C@@]34[C@@H]5C[C@H]6[C@H](OC)[C@@H]5[C@](O)(C[C@@H]6OC)[C@@](O)([C@@H](OC)[C@H]23)[C@@H]14` [MLA, methyllicaconitine] gave an IC50 ([2]; read-out: IC50) of 8.56 nM.
